Measured values: ChEMBL document CHEMBL1156686, “Xanthine oxidase-activated prodrugs of thymidine phosphorylase inhibitors” (Eur J Med Chem, 2008)

Key:
[1] = biological target: T1, Xanthine dehydrogenase/oxidase (Bos taurus, UniProt P80457); conditions: cattle
[2] = Inhibition of horse liver recombinant thymidine phosphorylase; design: species or system Equus caballus
[3] = biological target: T1, Xanthine dehydrogenase/oxidase; test: Inhibition of bovine xanthine oxidase using hypoxanthine as a substrate
[4] = biological target: T1, Xanthine dehydrogenase/oxidase; test: Inhibition of bovine xanthine oxidase using xanthine as a substrate

T1 sequence (P80457 whole entry): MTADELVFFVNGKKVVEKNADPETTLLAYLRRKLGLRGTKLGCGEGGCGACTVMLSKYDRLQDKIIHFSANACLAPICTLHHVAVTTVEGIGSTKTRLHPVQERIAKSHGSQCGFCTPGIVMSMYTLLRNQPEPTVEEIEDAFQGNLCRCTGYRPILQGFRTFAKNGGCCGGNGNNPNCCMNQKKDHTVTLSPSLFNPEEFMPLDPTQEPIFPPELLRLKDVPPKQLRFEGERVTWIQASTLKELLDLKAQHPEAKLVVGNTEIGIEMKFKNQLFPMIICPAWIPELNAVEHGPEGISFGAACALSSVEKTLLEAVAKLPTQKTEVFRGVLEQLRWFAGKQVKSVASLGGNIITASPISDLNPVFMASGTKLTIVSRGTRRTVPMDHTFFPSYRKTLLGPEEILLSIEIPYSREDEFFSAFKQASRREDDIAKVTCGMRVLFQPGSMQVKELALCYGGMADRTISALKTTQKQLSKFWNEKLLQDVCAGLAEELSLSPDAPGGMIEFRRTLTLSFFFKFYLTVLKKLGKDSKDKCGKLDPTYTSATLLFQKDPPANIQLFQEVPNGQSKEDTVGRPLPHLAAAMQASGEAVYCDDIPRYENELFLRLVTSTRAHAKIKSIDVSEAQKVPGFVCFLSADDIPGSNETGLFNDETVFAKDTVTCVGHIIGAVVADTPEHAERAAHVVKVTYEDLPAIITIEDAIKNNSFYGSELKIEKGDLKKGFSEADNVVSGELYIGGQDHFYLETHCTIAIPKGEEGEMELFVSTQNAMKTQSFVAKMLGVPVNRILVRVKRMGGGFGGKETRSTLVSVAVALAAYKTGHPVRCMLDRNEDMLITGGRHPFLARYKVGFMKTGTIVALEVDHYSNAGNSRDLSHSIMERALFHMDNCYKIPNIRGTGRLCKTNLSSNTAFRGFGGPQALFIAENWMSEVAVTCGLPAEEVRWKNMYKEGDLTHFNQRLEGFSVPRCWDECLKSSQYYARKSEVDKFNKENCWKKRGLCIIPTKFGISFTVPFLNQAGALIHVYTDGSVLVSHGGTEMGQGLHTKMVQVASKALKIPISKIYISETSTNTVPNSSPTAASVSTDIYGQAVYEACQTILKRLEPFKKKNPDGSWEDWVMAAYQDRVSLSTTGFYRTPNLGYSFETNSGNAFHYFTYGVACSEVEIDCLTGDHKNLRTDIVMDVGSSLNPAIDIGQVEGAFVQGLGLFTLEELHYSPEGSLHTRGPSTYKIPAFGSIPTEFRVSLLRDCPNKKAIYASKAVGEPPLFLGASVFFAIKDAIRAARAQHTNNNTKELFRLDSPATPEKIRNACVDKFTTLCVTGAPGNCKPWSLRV

SMILES | Km [1] [µM] | further results
N=C1CCCN1Cc1nc[nH]c(=O)c1Cl | 64.9 | –
O=c1[nH]cnc2[nH]ccc12 | 45.1 | –
Nc1[nH]c(=O)[nH]c(=O)c1Br | – | IC50 [2]: 30 µM
O=c1[nH]c(=O)c2cc[nH]c2[nH]1 [7-DEAZAXANTHINE] | – | Ki [3]: 25 µM; Ki [4]: 70 µM

Now from value to molecule, other results behind:

Km [1] [µM] | SMILES | further results
44.4 | Nc1ncncc1Br | –
32.5 | Nc1[nH]c(=O)ncc1Br | –
29.8 | O=c1ncc2cc[nH]c2[nH]1 | –
23.8 | Nc1nc[nH]c(=O)c1Br | –
